Molecules are shown by their SMILES. “Also recorded” adds a separate entry of the source.

The IC50 is the concentration at which inhibition is half-maximal. By microsomal CLint is commonly meant the capacity of the preparation to metabolise the compound, expressed as a volume cleared per time. Read a low microsomal CLint as greater metabolic stability. The term Km denotes the substrate concentration at which the rate is half of its maximum.

The target in data set [1] is thyroid hormone sulfotransferase activity in pooled human liver cytosol. As to the kind of experiment: Inhibition of 3,3′-T2 sulfotransferase activity. Conditions: for IC50: read-out: IC50 (nM) (95% CI) for the inhibition of 3,3′-T2S formation, 1 μM 3,3′-T2, 0.25 mg protein/ml pooled human liver cytosol, 50 μM PAPS, 30 min, 37°C; for inhibition of 3,3′-T2 sulfation (result in words): range of concentrations tested 10–1000 nM.

Data set [2] deals with thyroid hormone sulfotransferase activity in pooled human liver cytosol. As to the kind of experiment: Mechanism of 3,3′-T2 sulfotransferase inhibition. It counts as biochemical. The conditions noted are these: 3,3′-T2 0–5000 nM with varying 4-OH BDE 90; Vmax lower, apparent Km unchanged.
Data set [3] deals with thyroid hormone sulfotransferase activity. As to the kind of experiment: 3,3′-T2 sulfation kinetics in pooled human liver cytosol. The class given is biochemical. The conditions noted are these: human, pooled human liver cytosol.
The subject of data set [4] is thyroid hormone sulfotransferase activity in pooled human liver cytosol. The description is as above. It counts as biochemical.
The next data set concerns SULT1E1. The conditions noted are these: read-out: Km of 3,3′-T2 for SULT1E1; cited from earlier work.
For the next data set, the system named is SULT2A1. The conditions noted are these: read-out: Km of 3,3′-T2 for SULT2A1; cited from earlier work.
The test system of another data set is SULT1A3. Conditions: read-out: Km of 3,3′-T2 for SULT1A3; cited from earlier work.
Another data set has as its system SULT1A1. Conditions: read-out: Km of 3,3′-T2 for SULT1A1; cited from earlier work.

For `Oc1cc(Oc2cc(Br)c(Br)cc2Br)c(Br)cc1Br` [5′-OH BDE 99, 5′-OH 2,2′,4,4′,5-pentaBDE], the IC50 in data set [1] turned out to be 520 nM.

As for `Oc1c(I)cc(I)cc1I` [2,4,6-TIP, 2,4,6-triiodophenol], the IC50 in data set [1] worked out at 140 nM.

In the case of `Oc1c(Br)ccc(Oc2ccc(Br)cc2Br)c1Br` [3-OH BDE 47, 3-OH 2,2′,4,4′-tetraBDE], the IC50 in data set [1] amounted to 60 nM.

Regarding `Oc1c(Br)cc(Br)cc1Br` [2,4,6-TBP, 2,4,6-tribromophenol], the IC50 in data set [1] is 8.3 nM.

In the case of `Oc1c(Br)cc(Oc2ccc(Br)cc2Br)c(Br)c1Br` [4-OH BDE 90, 4-OH 2,2′,3,4′,5-pentaBDE], the IC50 in data set [1] was determined as 24 nM. Besides, in data set [2], the inhibition mechanism result was “non-competitive”.

As to `Oc1cc(Oc2ccc(Br)cc2Br)c(Br)cc1Br` [5-OH BDE 47, 5-OH 2,2′,4,4′-tetraBDE], the IC50 in data set [1] amounted to 400 nM.

Take `Oc1c(F)cc(F)cc1F` [2,4,6-TFP, 2,4,6-trifluorophenol]: the IC50 in data set [1] is 4.6 nM.

For `CC(C)(c1cc(I)c(O)c(I)c1)c1cc(I)c(O)c(I)c1` [TIBPA, 3,3′,5,5′-tetraiodobisphenol A], the IC50 in data set [1] came out at 13200 nM.

With `Oc1cc(Oc2ccc(Br)cc2Br)ccc1Br` [3′-OH BDE 28, 3′-OH 2,4,4′-triBDE], the IC50 in data set [1] is 190 nM.

On to `Oc1cc(Cl)ccc1Oc1ccc(Cl)cc1Cl` [Triclosan, triclosan], for which the “fold less potent than 3′-OH BDE 28” value in data set [1] (3,3′-T2 sulfotransferase inhibition potency) is listed as “approximately 7 fold”. Also, the IC50 in data set [1] amounted to 1410 nM.

Take `Oc1ccccc1Oc1ccc(Br)cc1` [2′-OH BDE 3, 2′-OH 4-monoBDE]: in data set [1], the IC50 is 500 nM.

Turning to `Oc1c(Br)cc(Br)c(Oc2cc(Br)c(Br)cc2Br)c1Br` [3′-OH BDE 154, 3-OH 2,2′,4,4′,5,6′-hexaBDE], the IC50 in data set [1] worked out at 80 nM.

As for `CC(C)(c1cc(Cl)c(O)c(Cl)c1)c1cc(Cl)c(O)c(Cl)c1` [TCBPA, 3,3′,5,5′-tetrachlorobisphenol A], the IC50 in data set [1] came to 340 nM.

As to `Oc1cccc(Oc2ccc(Br)cc2Br)c1` [3′-OH BDE 7, 3′-OH 2,4-diBDE], in data set [1], the IC50 turned out to be 410 nM.

For the compound `Oc1cc(Br)c(Oc2cc(Br)c(Br)cc2Br)cc1Br` [4′-OH BDE 101, 4′-OH 2,2′,4,5, 5′-pentaBDE], the IC50 in data set [1] was determined as 640 nM.

On to `Oc1cc(Br)cc(Br)c1Oc1ccc(Br)cc1Br` [6-OH BDE 47, 6-OH 2,2′,4,4′-tetraBDE], for which the IC50 in data set [1] worked out at 130 nM.

For `Oc1c(Br)c(Br)c(Oc2c(Br)cc(Br)c(Br)c2Br)c(Br)c1Br` [4′-OH BDE 201, 4′-OH 2,2′,3,3′,4,5′,6,6′-octaBDE], in data set [1], the IC50 is 510 nM.

Take `Oc1cc(Br)cc(Br)c1Oc1cc(Br)c(Br)cc1Br` [6′-OH BDE 99, 6′-OH 2,2′,4,4′,5-pentaBDE]: the IC50 in data set [1] was 310 nM.

As for `Brc1ccc(Oc2ccc(Br)cc2Br)c(Br)c1` [BDE 47, 2,2′,4,4′-tetrabromodiphenyl ether], the results for the “inhibition of 3,3′-T2 sulfation (result in words)” value in data set [1] and in data set [1] (listed as BDE-47) were “did not inhibit 3,3′-T2 sulfation; also recorded: did not show inhibition” and “did not show sulfotransferase inhibition”, respectively.

Regarding `N[C@@H](Cc1ccc(Oc2ccc(O)c(I)c2)c(I)c1)C(=O)O` [3,3′-T2, 3,3′-diiodothyronine], in data set [3], the microsomal CLint was 145 µL/min/mg. Moreover, in data set [4] (1 μM 3,3′-T2, 30 min incubation, 0.25 mg protein/ml), the “3,3′-T2S formation rate under standard conditions” value is 70–80 pmol/min.mg protein. Also, the “Vmax for 3,3′-T2 sulfate formation” value in data set [4] (pooled human liver cytosol 0.25 mg protein/ml, 30 min) is recorded as 153 ± 6.6 pmol/min.mg protein. Further, the Km in data set [4] (read-out: apparent Km for the 3,3′-T2 sulfation reaction, pooled human liver cytosol 0.25 mg protein/ml, 30 min) was 1.07 ± 0.12 µM; in the data set on SULT1E1, 3.5 to 9.7 µM; in the data set with SULT2A1, 3 µM; in the data set with SULT1A3, 31 to 35 µM; in the data set with SULT1A1, 0.12 µM.

For the compound `CC(C)(c1cc(Br)c(O)c(Br)c1)c1cc(Br)c(O)c(Br)c1` [TBBPA, tetrabromobisphenol A], in data set [1], the IC50 came to 460 nM.

Turning to `Oc1cc(Br)c(Oc2ccc(Br)cc2Br)cc1Br` [4′-OH BDE 49, 4′-OH 2,2′,4,5′-tetraBDE], the IC50 in data set [1] amounted to 650 nM.

As to `Oc1ccc(C(c2ccc(O)cc2)(C(F)(F)F)C(F)(F)F)cc1` [BPA-AF, 4,4′-(hexafluoroisopropylidene)diphenol], in data set [1], the IC50 was found to be 8590 nM.
